In US20100222394A1, “METHOD FOR PRODUCING PYRAZOL-3-YL-BENZAMIDE DERIVATIVE” (priority 2007, published 2010):

Legend:
[1] = Thermogravimetric analysis; assay type: physicochemical; conditions: flow of nitrogen, heating rate 10° C./min
Description: (§1) A Perkin Elmer model TG 7 or equivalent instrument is used. Experiments are performed under a flow of nitrogen and using a heating rate 10° C./min to a maximum temperature of 500° C. Approximately 10 mg of sample is added to the platinum pan. Weight/temperature data are collected automatically by the instrument. Compound 9 doesn't show obvious weight loss until 180° C.

[2] = molecular target: recombinant human liver GK (Homo sapiens, UniProt P35557); assay: biochemical; parameters: Emax: dose or concentration left out as unconfirmed
Description: The glucokinase activity may be determined not by directly measuring glucose-6-phosphate but by measuring the level of Thio-NADH, which is produced when a reporter enzyme, glucose-6-phosphate dehydrogenase produces phosphogluconolactone from glucose-6-phosphate, and based on the level, the degree of glucokinase activity of the compound tested may be determined.
In this assay, used was a recombinant human liver GK, which was expressed by E. coli as a FLAG fusion protein therein and was purified by […] M2 AFFINITY GEL (Sigma).
69 μl of an assay buffer (25 mM Hepes Buffer/pH=7.2, 2 mM MgCl2, 1 mM ATP, 0.5 mM TNAD, 1 mM dithiothreitol) was put into the plate, and 1 μl of a DMSO solution of the compound or DMSO alone as a control was added thereto. Next, 20 μl of an enzyme mixture (FLAG-GK, 20 U/ml G6PDH) cooled in ice was added to it, and 10 μl of a substrate, 25 mM glucose was added to it, and the reaction was initiated (final glucose concentration=2.5 mM).
The OD level of the DMSO control was set as 100%; and the OD level of the test compound at different concentrations was determined. From the OD level at each concentration, Emax (%) and EC50 (μM) were computed and used as the index of the GK-activating potency of the compound.

[3] = Solid-state properties of the crystal compared to the amorphous form (from thermogravimetric analysis and X-ray powder diffraction); assay type: physicochemical; conditions: compared to amorphous form of the free benzamide of patent document 1
Description: as §1
Obtain the X-ray diffraction pattern of a finely-powdered, randomly orientated sample, using copper K alpha X-radiation from 4 to 40 theta.
Bruker powder X-ray diffractometer D8ADVANCE (at 2 kW) (bull car ray X id bull car ray X id Co., Ltd.) is used, and a powder X-ray diffraction experiment was done.

Chain of recombinant human liver GK (P35557 1-466 isoform P35557-2): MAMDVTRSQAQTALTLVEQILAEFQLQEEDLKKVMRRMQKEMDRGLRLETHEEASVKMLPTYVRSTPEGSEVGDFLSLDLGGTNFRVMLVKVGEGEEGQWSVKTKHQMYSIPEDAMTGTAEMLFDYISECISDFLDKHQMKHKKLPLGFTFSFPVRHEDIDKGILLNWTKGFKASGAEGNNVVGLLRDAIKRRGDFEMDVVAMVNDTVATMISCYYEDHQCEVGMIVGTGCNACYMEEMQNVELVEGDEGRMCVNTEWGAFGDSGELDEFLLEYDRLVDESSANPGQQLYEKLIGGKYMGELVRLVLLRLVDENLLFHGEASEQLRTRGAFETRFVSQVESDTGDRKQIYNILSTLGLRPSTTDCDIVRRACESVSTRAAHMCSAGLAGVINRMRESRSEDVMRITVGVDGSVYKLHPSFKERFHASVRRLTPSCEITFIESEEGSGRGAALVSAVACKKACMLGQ

CCS(=O)(=O)c1ccc(Oc2cc(O[C@@H](C)CO)cc(C(=O)Nc3ccn(C)n3)c2)cn1.CS(=O)(=O)O [3-(6-ethanesulfonylpyridin-3-yloxy)-5-((1S)-2-hydroxy-1-methyl-ethoxy)-N-(1-methyl-1H-pyrazol-3-yl)benzamide methanesulfonate]
temperature until which no obvious weight loss is shown [1]: ≥ 180 °C | EC50 [2]: 30 nM | Emax [2]: 828% | hygroscopicity [3]: less hygroscopicity | physical stability [3]: stability physically
